How the values were obtained:
[1] = target: T1, UDP-glucuronosyltransferase 2B7 (Homo sapiens, UniProt P16662); assay: Drug metabolism assessed as human recombinant UGT2B7-mediated compound formation treated with AMG 853 at 10 uM after 30 mins by LC-MS/MS analysis; format: ADME; conditions: recombinant enzyme, 0.5 h
T1 sequence (P16662 whole entry): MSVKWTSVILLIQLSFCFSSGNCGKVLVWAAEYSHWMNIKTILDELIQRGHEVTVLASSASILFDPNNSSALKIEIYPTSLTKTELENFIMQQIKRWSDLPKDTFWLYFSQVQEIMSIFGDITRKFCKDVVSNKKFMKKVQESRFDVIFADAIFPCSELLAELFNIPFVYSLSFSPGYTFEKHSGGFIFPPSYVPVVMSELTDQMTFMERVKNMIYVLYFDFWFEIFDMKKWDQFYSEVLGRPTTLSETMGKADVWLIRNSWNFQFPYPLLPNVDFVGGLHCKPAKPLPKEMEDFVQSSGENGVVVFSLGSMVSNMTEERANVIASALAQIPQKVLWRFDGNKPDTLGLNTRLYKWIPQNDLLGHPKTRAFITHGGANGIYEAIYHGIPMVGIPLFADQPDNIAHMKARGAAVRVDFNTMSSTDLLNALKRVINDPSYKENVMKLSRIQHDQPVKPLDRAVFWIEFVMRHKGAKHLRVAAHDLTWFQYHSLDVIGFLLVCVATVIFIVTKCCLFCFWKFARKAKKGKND

[2] = target: T2, UDP-glucuronosyltransferase 1A3 (Homo sapiens, UniProt P35503); assay: Drug metabolism assessed as human recombinant UGT1A3-mediated compound formation treated with AMG 853 after 45 mins by LC-MS/MS analysis in presence of UDPGA; format: ADME; conditions: recombinant enzyme, 0.75 h
T2 sequence (P35503 whole entry): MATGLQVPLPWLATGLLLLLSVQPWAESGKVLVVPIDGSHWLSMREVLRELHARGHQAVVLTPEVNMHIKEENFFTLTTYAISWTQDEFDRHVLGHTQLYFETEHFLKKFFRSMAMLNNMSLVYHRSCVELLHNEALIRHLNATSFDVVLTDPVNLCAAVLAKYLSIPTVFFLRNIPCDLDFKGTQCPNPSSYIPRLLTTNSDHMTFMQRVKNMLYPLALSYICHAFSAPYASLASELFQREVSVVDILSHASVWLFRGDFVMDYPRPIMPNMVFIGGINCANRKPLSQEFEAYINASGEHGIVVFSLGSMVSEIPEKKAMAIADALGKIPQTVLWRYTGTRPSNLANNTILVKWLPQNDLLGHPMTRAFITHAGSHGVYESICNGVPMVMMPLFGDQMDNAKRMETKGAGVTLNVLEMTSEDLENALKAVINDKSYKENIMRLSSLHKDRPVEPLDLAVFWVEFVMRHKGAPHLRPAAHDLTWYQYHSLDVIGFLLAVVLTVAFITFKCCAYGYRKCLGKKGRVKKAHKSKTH

[3] = target: T3, UDP-glucuronosyltransferase 1A1 (Homo sapiens, UniProt P22309); assay: Drug metabolism assessed as human recombinant UGT1A1-mediated compound formation treated with AMG 853 after 45 mins by LC-MS/MS analysis in presence of UDPGA; format: ADME; conditions: recombinant enzyme, 0.75 h
T3 sequence (P22309 whole entry): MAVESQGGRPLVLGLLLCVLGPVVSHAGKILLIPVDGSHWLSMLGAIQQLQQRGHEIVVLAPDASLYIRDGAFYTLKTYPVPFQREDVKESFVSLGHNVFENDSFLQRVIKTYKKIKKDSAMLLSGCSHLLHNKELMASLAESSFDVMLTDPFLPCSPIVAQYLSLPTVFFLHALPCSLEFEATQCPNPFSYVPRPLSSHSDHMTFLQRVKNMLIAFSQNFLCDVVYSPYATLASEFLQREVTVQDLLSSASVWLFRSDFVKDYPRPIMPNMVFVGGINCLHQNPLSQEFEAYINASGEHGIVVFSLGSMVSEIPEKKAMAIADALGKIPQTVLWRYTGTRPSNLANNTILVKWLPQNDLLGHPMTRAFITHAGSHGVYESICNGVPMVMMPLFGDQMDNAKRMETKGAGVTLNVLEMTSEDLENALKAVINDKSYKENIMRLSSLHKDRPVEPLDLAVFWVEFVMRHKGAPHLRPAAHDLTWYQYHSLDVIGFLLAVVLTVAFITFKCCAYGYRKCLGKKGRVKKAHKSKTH

[4] = Drug metabolism in human liver microsomes assessed as CYP3A5*1/*1-compound formation after 15 mins by LC-MS/MS analysis in presence of UDPGA; format: ADME; conditions: 0.25 h
CYP3A4 [5] = target: CYP3A4 (Homo sapiens, UniProt P08684); assay: Induction of CYP3A4 in human hepatocytes using midazolam as substrate at 0.3 to 30 uM treated every 24 hrs for 2 days measured on day 5 by LC-MS/MS analysis relative to control
[6] = target: UDP-glucuronosyltransferase 1A9 (Homo sapiens, UniProt O60656); assay: (§1) Drug metabolism assessed as human recombinant UGT1A9-mediated (2S,3S,4S,5R,6S)-6-(2-(4-(4-(tert-butylcarbamoyl)-2-(2-chloro-4-cyclopropylphenylsulfonamido)phenoxy)-5-chloro-2-fluorophenyl)acetoxy)-3,4,5-trihydroxytetrahydro-2H-pyran-2-carboxylic acid formation at 10 uM after 30 mins by LC-MS/MS analysis; format: ADME; conditions: recombinant enzyme, 0.5 h
[7] = target: T2, UDP-glucuronosyltransferase 1A3; assay: as §1, with “UGT1A3-mediated” for “UGT1A9-mediated”; format: ADME; conditions: recombinant enzyme, 0.5 h
[8] = Fraction unbound in plasma (unknown origin); format: ADME, cell-free
[9] = Drug metabolism in human liver microsomes assessed as CYP3A5*1/*1-mediated (2S,3S,4S,5R,6S)-6-(2-(4-(4-(tert-butylcarbamoyl)-2-(2-chloro-4-cyclopropylphenylsulfonamido)phenoxy)-5-chloro-2-fluorophenyl)acetoxy)-3,4,5-trihydroxytetrahydro-2H-pyran-2-carboxylic acid formation after 15 mins by LC-MS/MS analysis in presence of UDPGA and NADPH; format: ADME; conditions: 0.25 h
CYP2C9 = assay: Upregulation of CYP2C9 mRNA expression in human hepatocytes at 0.3 to 30 uM treated every 24 hrs for 2 days measured on day 5 relative to control; format: ADME, cell-based, Hepatocyte; conditions: read-out: FC
Cytochrome P450 3A4 = Cytochrome P450 3A4 (Homo sapiens, UniProt P08684); assay: Drug metabolism assessed as recombinant CYP3A4 (unknown origin)-mediated 2-(5-chloro-4-(2-(2-chloro-4-cyclopropylphenylsulfonamido)-4-(1-hydroxy-2-methylpropan-2-ylcarbamoyl)phenoxy)-2-fluorophenyl)acetic acid formation at 10 uM after 30 mins by LC-MS/MS analysis; format: ADME; conditions: recombinant enzyme, 0.5 h
CYP3A4 [10] = assay: Upregulation of CYP3A4 mRNA expression in human hepatocytes at 0.3 to 30 uM treated every 24 hrs for 2 days measured on day 5 relative to control; format: ADME, cell-based, Hepatocyte; conditions: read-out: FC
Cytochrome P450 2C19 = Cytochrome P450 2C19 (Homo sapiens, UniProt P33261); assay: Drug metabolism assessed as recombinant CYP2C19 (unknown origin)-mediated 2-(4-(4-(tert-butylcarbamoyl)-2-(2-chloro-4-(1-hydroxycyclopropyl)phenylsulfonamido)phenoxy)-5-chloro-2-fluorophenyl)acetic acid formation at 10 uM after 30 mins by LC-MS/MS analysis; format: ADME; conditions: recombinant enzyme, 0.5 h
Cytochrome P450 2C19, sequence (P33261 whole entry): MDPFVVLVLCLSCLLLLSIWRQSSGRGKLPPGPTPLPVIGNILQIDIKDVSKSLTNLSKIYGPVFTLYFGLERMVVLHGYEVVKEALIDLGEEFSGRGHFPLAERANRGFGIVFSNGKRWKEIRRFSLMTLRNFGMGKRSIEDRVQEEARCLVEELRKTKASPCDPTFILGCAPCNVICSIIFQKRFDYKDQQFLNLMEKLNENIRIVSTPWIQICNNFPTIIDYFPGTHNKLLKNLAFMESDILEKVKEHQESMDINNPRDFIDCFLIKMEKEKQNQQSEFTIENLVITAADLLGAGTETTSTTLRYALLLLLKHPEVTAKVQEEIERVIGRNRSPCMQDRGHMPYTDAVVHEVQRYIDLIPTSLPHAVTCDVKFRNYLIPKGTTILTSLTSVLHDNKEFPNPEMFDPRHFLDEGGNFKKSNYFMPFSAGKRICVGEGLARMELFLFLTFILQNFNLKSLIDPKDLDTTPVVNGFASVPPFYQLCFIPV

UDP-glucuronosyltransferase 1A9, sequence (O60656 whole entry): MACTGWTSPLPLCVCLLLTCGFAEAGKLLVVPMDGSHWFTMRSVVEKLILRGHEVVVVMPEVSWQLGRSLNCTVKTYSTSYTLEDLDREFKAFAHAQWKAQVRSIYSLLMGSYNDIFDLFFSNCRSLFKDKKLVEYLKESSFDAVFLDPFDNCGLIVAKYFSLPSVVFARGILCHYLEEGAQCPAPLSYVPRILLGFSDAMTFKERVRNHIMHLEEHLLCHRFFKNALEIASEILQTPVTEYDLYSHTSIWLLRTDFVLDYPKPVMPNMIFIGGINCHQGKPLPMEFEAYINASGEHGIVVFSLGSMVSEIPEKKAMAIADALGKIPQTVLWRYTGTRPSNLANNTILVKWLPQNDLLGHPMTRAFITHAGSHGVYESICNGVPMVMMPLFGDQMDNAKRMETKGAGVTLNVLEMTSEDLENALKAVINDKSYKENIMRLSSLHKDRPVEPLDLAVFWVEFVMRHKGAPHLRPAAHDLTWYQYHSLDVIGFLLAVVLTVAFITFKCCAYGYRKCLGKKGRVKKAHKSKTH
Cytochrome P450 3A4, sequence (P08684 whole entry): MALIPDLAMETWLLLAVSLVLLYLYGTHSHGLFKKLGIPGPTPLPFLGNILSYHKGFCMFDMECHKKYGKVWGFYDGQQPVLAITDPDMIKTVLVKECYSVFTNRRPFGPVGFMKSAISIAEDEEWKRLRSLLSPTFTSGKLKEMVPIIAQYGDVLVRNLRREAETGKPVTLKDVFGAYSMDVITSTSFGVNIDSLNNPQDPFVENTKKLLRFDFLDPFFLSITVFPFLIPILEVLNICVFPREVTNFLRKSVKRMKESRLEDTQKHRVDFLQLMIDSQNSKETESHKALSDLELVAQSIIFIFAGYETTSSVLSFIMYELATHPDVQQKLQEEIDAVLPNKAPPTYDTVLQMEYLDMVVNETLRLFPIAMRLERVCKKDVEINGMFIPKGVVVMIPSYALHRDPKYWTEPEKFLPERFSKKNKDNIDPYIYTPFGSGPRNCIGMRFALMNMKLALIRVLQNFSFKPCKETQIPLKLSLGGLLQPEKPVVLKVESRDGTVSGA
CYP3A4 (Homo sapiens, UniProt P08684), sequence (P08684 whole entry): as above

Compound	Drug metabolism [1]	S50 [2] [µM]	Vmax [2] [pmol/min/mg]	S50 [3] [µM]	Vmax [3] [pmol/min/mg]	Drug metabolism [4]	fold induction at 48 h, 30 µM (CYP3A4 [5])	Drug metabolism [6]	Drug metabolism [7]	fraction unbound [8]	Drug metabolism [9]	fold induction at 48 h, up to 30 µM (CYP2C9)	Drug metabolism (Cytochrome P450 3A4)	fold induction at 48 h, up to 30 µM (CYP3A4 [10])	Drug metabolism (Cytochrome P450 2C19)
CC(C)(C)NC(=O)c1ccc(Oc2cc(F)c(CC(=O)O[C@@H]3O[C@H](C(=O)O)[C@@H](O)[C@H](O)[C@H]3O)cc2Cl)c(NS(=O)(=O)c2ccc(C3CC3)cc2Cl)c1	metabolite_detected	379.2	39.1	218.4	3.45	metabolite_detected	–	–	–	–	–	–	–	–	–
CC(C)(C)NC(=O)c1ccc(Oc2cc(F)c(CC(=O)O)cc2Cl)c(NS(=O)(=O)c2ccc(C3CC3)cc2Cl)c1 [VIDUPIPRANT]	–	–	–	–	–	–	1.4	metabolite_not_detected	metabolite_detected	0.003	metabolite_not_detected	1.7	metabolite_detected	1.7	metabolite_detected
